# Results: PubChem BioAssay (NCI)
#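 48-hour exposure; five concentrations; linearly interpolated endpoints. The concentration for full growth arrest is given as TGI.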
# Experiments:
# Experiment in all cases: growth of human tumour cells (NCI), 48 h
# [1] = test system: RXF 393 renal
# [2] = test system: OVCAR-4 ovarian
# [3] = test system: COLO 205 colon
# [4] = test system: SNB-75 CNS
# [5] = test system: NCI-H226 lung
# [6] = test system: U251 CNS
# [7] = test system: UACC-257 melanoma
# [8] = test system: NCI/ADR-RES ovarian
# [9] = test system: OVCAR-3 ovarian
# [10] = test system: MDA-MB-435
# [11] = test system: IGROV1 ovarian
# [12] = test system: HCT-116 colon
# [13] = test system: SF-539 CNS
# [14] = test system: NCI-H460 lung
# [15] = test system: EKVX NSCLC
# [16] = test system: MDA-N
# [17] = test system: TK-10 renal
# [18] = test system: SW-620 colon
# [19] = test system: 786-0 renal
# [20] = test system: SK-OV-3 ovarian
# [21] = test system: HS 578T breast
# [22] = test system: NCI-H522 lung
# [23] = test system: SK-MEL-5 melanoma
# [24] = test system: HOP-62 NSCLC
# [25] = test system: RPMI-8226 leukemia
# [26] = test system: HOP-92 NSCLC
# [27] = test system: KM12 colon
# [28] = test system: UACC-62 melanoma
# [29] = test system: M14 melanoma
# [30] = test system: PC-3 prostate
# [31] = test system: SF-268 CNS
# [32] = test system: MALME-3M melanoma
# [33] = test system: BT-549 breast
# [34] = test system: SN12C renal
# [35] = test system: CAKI-1 renal
# [36] = test system: HL-60(TB) leukemia
# [37] = test system: NCI-H23 lung
# [38] = test system: HCT-15 colon
# [39] = test system: MDA-MB-231 breast
# [40] = test system: MOLT-4 leukemia
# [41] = test system: ACHN renal
# [42] = test system: SNB-19 CNS
# [43] = test system: LOX IMVI melanoma
# [44] = test system: A498 renal
# [45] = test system: HCC-2998 colon
# [46] = test system: CCRF-CEM leukemia
# [47] = test system: A549 NSCLC
# [48] = test system: OVCAR-8 ovarian
# [49] = test system: SK-MEL-28 melanoma
# [50] = test system: T-47D breast
# [51] = test system: HT29 colon
# [52] = test system: SF-295 CNS
# [53] = test system: SK-MEL-2 melanoma
# [54] = test system: UO-31 renal
# [55] = test system: DU-145 prostate
# [56] = test system: MCF7 breast
# [57] = test system: OVCAR-5 ovarian
# [58] = test system: K-562 leukemia
# [59] = test system: SR leukemia
structure (smiles),measurement,setting,value
O=c1oc2ccccc2c(O)c1C(c1ccc2c(c1)Cc1ccccc1-2)c1c(O)c2ccccc2oc1=O,TGI,[1],35.5 µM
same,TGI,[2],> 100 µM
same,TGI,[3],37.2 µM
same,TGI,[4],> 100 µM
same,TGI,[5],> 100 µM
same,TGI,[6],60.3 µM
same,TGI,[7],> 100 µM
same,TGI,[8],> 100 µM
same,TGI,[9],> 100 µM
same,TGI,[10],77.4 µM
same,TGI,[11],> 100 µM
same,TGI,[12],> 100 µM
same,TGI,[13],43.5 µM
same,TGI,[14],62.4 µM
same,TGI,[15],> 100 µM
same,TGI,[16],36.7 µM
same,TGI,[17],> 100 µM
same,TGI,[18],90.9 µM
same,TGI,[19],66.9 µM
same,TGI,[20],90.8 µM
same,TGI,[21],86.3 µM
same,TGI,[22],49.2 µM
same,TGI,[23],39.9 µM
same,TGI,[24],> 100 µM
same,TGI,[25],> 100 µM
same,TGI,[26],49.3 µM
same,TGI,[27],49.1 µM
same,TGI,[28],49.8 µM
same,TGI,[29],41 µM
same,TGI,[30],> 100 µM
same,TGI,[31],68.4 µM
same,TGI,[32],71.4 µM
same,TGI,[33],53.6 µM
same,TGI,[34],41.2 µM
same,TGI,[35],41.5 µM
same,TGI,[36],59.8 µM
same,TGI,[37],69.5 µM
same,TGI,[38],57.2 µM
same,TGI,[39],57.9 µM
same,TGI,[40],> 100 µM
same,TGI,[41],45.6 µM
same,TGI,[42],> 100 µM
same,TGI,[43],66.7 µM
same,TGI,[44],> 100 µM
same,TGI,[45],33.6 µM
same,TGI,[46],> 100 µM
same,TGI,[47],44.4 µM
same,TGI,[48],> 100 µM
same,TGI,[49],57.6 µM
same,TGI,[50],> 100 µM
same,TGI,[51],> 100 µM
same,TGI,[52],57.4 µM
same,TGI,[53],74.2 µM
same,TGI,[54],33.1 µM
same,TGI,[55],> 100 µM
same,TGI,[56],51.1 µM
same,TGI,[57],66.1 µM
COc1ccc2c(c1)CCC1=C/C(=N\NC(N)=O)CCC12C (stereo not drawn),TGI,[2],> 10 µM
same,TGI,[3],> 10 µM
same,TGI,[4],> 10 µM
same,TGI,[6],> 10 µM
same,TGI,[7],> 10 µM
same,TGI,[8],> 10 µM
same,TGI,[9],> 10 µM
same,TGI,[10],> 10 µM
same,TGI,[58],> 10 µM
same,TGI,[11],> 10 µM
same,TGI,[12],> 10 µM
same,TGI,[13],> 10 µM
same,TGI,[16],> 10 µM
same,TGI,[17],> 10 µM
same,TGI,[18],> 10 µM
same,TGI,[19],> 10 µM
same,TGI,[20],> 10 µM
same,TGI,[21],> 10 µM
same,TGI,[22],> 10 µM
same,TGI,[23],> 10 µM
same,TGI,[24],> 10 µM
same,TGI,[25],> 10 µM
same,TGI,[26],> 10 µM
same,TGI,[27],> 10 µM
same,TGI,[28],> 10 µM
same,TGI,[29],> 10 µM
same,TGI,[30],> 10 µM
same,TGI,[31],> 10 µM
same,TGI,[32],> 10 µM
same,TGI,[33],> 10 µM
same,TGI,[34],> 10 µM
same,TGI,[35],> 10 µM
same,TGI,[36],> 10 µM
same,TGI,[37],> 10 µM
same,TGI,[38],> 10 µM
same,TGI,[39],> 10 µM
same,TGI,[40],> 10 µM
same,TGI,[41],> 10 µM
same,TGI,[42],> 10 µM
same,TGI,[43],> 10 µM
same,TGI,[45],> 10 µM
same,TGI,[46],> 10 µM
same,TGI,[47],> 10 µM
same,TGI,[48],> 10 µM
same,TGI,[49],> 10 µM
same,TGI,[50],> 10 µM
same,TGI,[51],> 10 µM
same,TGI,[52],> 10 µM
same,TGI,[59],> 10 µM
same,TGI,[55],> 10 µM
same,TGI,[56],> 10 µM
